Assay results taken from patent US11974993B2, “Solution formulations of CX-011” (City of Hope, priority 2021, dated 2024).
“Also recorded” adds a separate entry of the source.

Assays:
[1] = system: pSTAT3 and MYC; details: disclosed in U.S. Patent Publication No. 2020/0377494A1; cited from earlier work
[2] = system: aggrecan and collagen neoepitopes; details: disclosed in U.S. Patent Publication No. 2020/0377494A1; cited from earlier work
[3] = Dissolution of solid CX-011 in solvents and excipient solutions, determined by visual inspection; type: physicochemical
Procedure: Confirmation of dissolution can be confirmed by visual inspection, either by the naked eye or by microscope, to detect the presence of undissolved particles. Spectroscopic methods can also be used, such as light scattering detection or absorbance spectroscopy. Apparatuses for such spectroscopic detection are well-known in the art.
Solid CX-011 (5 mg) was mixed in a solution of 20%-40% 2-Hydroxypropyl)-β-cyclodextrin (Accelachem) in water (10 mL) and the mixture sonicated for 30 minutes. Dissolution determined by visual inspection. Not soluble.
Solid CX-011 (5 mg) was mixed in a solution of 20%-40% 2-Hydroxypropyl)-β-cyclodextrin (Accelachem) in water (10 mL) and 50 μL 1N HCl and the mixture sonicated for 30 minutes. Dissolution determined by visual inspection. Not soluble.
Solid CX-011 (4 mg) was mixed in a solution of 3N HCl aqueous (2 mL) and the mixture sonicated for 30 minutes. Dissolution determined by visual inspection. Not soluble.
Solid CX-011 (2.6 mg) was mixed in a solution of ˜4N HCl in methanol (200 uL) and the mixture sonicated for 30 minutes. Dissolution determined by visual inspection. Not soluble.
Solvent was evaporated. The remaining residue was washed with ether twice, then dried. The dried residue was mixed with water (10 mL) and the mixture sonicated for 30 minutes. Dissolution determined by visual inspection. Not soluble.
Solid CX-011 (1 mg) was mixed in a solution of 10% polyvinylpyrrolidone K-30 (10 mL) and the mixture sonicated for 30 minutes. Dissolution determined by visual inspection. Not soluble.
Solid CX-011 (1.5 mg) was mixed in ethanol (0.5 mL) and the mixture sonicated for 30 minutes. Dissolution determined by visual inspection. Not soluble.
Solid CX-011 (3 mg) was mixed in propylene glycol (0.5 mL) (Spectrum) and the mixture sonicated for 30 minutes. Dissolution determined by visual inspection. Not soluble.
Water (0.5 mL) was added.
Solid CX-011 (2.8 mg) was added to PEG400 (0.5 mL) (Spectrum) and mixed on a vortexer until dissolved. Water (0.5 mL) was added.
Solid CX-011 (3.0 mg) was mixed in 30% Kolliphor® HS 15 (5 mL) (Sigma) and the mixture sonicated for 30 minutes. Dissolution determined by visual inspection.
Solid CX-011 (15 mg) was mixed in polysorbate 80 (1 mL) and the mixture sonicated for 30 minutes. The solution was clear.
(§1) 15 mg CX-011 was added to a 50 mL tube. A volume of 5-10 mL 30% kolliphor HS was added. […] Distilled water or other physiology buffer, for example, PBS or saline was added to the above completely dissolved solution to final volume 100 mL with gently stirring. The solution can be filtered through 0.22 um filter. The appearance and pH value was noted. The solution was clear with pH value 5-5.5 for water and saline solution and is 7.2 for PBS solution. […] The final Kolliphor HS concentration in solution is about 1.5%-3%.

[4] = Properties of the CX-011 solution in Kolliphor HS 15: pH, 0.22 um filtration with UV absorbance at 323 nm, storage stability by appearance and HPLC; type: physicochemical
Procedure: Preparation of 30% (w/v) Kolliphor HS 15 in aqueous solution. Solid Kolliphor HS 15 was immersed in a water bath at 37° C. until melted. A 30% (w/v) solution was prepared by vortex mixing Kolliphor HS 15 with an appropriate amount of distilled water. The mixture was filtered through a 0.22 um PES filter (Corning).
as §1

SMILES: Cc1ccc(-c2csc(NC(=O)c3ccccn3)n2)cc1 [CX-011]
- Levels of pSTAT3 and MYC [1]: did not increase
- Generation of aggrecan and collagen neoepitopes [2]: almost completely blocked
- Dissolution by visual inspection ([3]; Example 1: 5 mg in 10 mL 20%-40% 2-hydroxypropyl-β-cyclodextrin in water, sonicated 30 minutes): Not soluble
- Dissolution by visual inspection ([3]; Example 2: 5 mg in 10 mL 20%-40% 2-hydroxypropyl-β-cyclodextrin in water plus 50 μL 1N HCl, sonicated 30 minutes): Not soluble
- Dissolution by visual inspection ([3]; Example 3: 4 mg in 2 mL 3N HCl aqueous, sonicated 30 minutes): Not soluble
- Dissolution by visual inspection ([3]; Example 4: 2.6 mg in 200 uL ~4N HCl in methanol, sonicated 30 minutes): Not soluble
- Dissolution by visual inspection ([3]; Example 5: 6 mg treated with 1 eq MeSO3H in CH2Cl2, evaporated, dried residue in 10 mL water, sonicated 30 minutes): Not soluble
- Dissolution by visual inspection ([3]; Example 6: 1 mg in 10 mL 10% polyvinylpyrrolidone K-30, sonicated 30 minutes): Not soluble
- Dissolution by visual inspection ([3]; Example 7: 1.5 mg in 0.5 mL ethanol, sonicated 30 minutes): Not soluble
- Dissolution by visual inspection ([3]; Example 8: 3 mg in 0.5 mL propylene glycol, sonicated 30 minutes): Not soluble
- Appearance after addition of water ([3]; Example 9: 4 mg in 0.5 mL DMA, then 0.5 mL water added): Precipitation was observed
- Dissolution by visual inspection ([3]; Example 9: 4 mg in 0.5 mL DMA, vortexed): clear solution
- Appearance after addition of water ([3]; Example 10: 2.8 mg in 0.5 mL PEG400, then 0.5 mL water added): Precipitation was observed
- Dissolution by visual inspection ([3]; Example 10: 2.8 mg in 0.5 mL PEG400, vortexed): dissolved
- Dissolution by visual inspection ([3]; Example 11: 3.0 mg in 5 mL 30% Kolliphor HS 15, sonicated 30 minutes): Dissolved—clear solution
- Dissolution by visual inspection ([3]; Example 12: 15 mg in 1 mL polysorbate 80, sonicated 30 minutes): clear
- Appearance after addition of water ([3]; Example 12: 15 mg in 1 mL polysorbate 80, then 10 mL water added): precipitate was observed
- Appearance of the diluted solution ([3]; Example 14: 15 mg diluted to 100 mL with water, PBS or saline, final Kolliphor HS about 1.5%-3%): clear
- Dissolution by visual inspection ([3]; Example 14: 15 mg in 5-10 mL 30% Kolliphor HS, sonicated 2 hours): clear solution
- Solubility in aqueous solution ([3]; aqueous solution, general statement): poorly soluble; also recorded: poor solubility
- Difference of the concentration of CX-011 before or after filtration ([4]; Example 14: 0.22 um filter, UV absorbance at 323 nm): no significant difference
- pH value of the solution ([4]; Example 14: PBS solution): 7.2
- pH value of the solution ([4]; Example 14: water and saline solution): 5-5.5
- Appearance of the solution on storage ([4]; Example 14 solution, after 1 week at room temperature): remained clear
- Stability of the compound by HPLC analysis ([4]; Example 14 solution, under preparation and storage): stable
